In the supplement of paper PMC11208160:

Assay: recombinant UMI read abundance after kanamycin selection (control-corrected) (log10(CPM+1)); higher = more efficient recombination; extreme values may be limits of the assay; sequences stand for … in AGTGCAGAGAAAATCGGCCAGTTTTCTCTGCCTGCAGTCCGCATGCCGTGGGACCCCTTGGGTTCTAACCTGTTGCCTAGATTTATGCAGCGGACTGCCTTTCTCCCAAAGTGATAAACCGG…AGGTTGGTTTCACT; site = the 11-nt donor
Procedure: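 Pooled E. coli donor-specificity screen for the IS621 bridge recombinase. Each library member carries a reprogrammed 11-nt donor and a full-length LE bridge RNA expressed in cis from the natural promoter, with a paired donor-binding loop (8-nt LDG + 4-nt RDG) and a target-binding loop fixed to T5. It is co-electroporated with a T5 target plasmid; recombinase is induced with 0.07 mM IPTG and recombinants are selected on kanamycin. UMIs are counted as CPM, averaged over two biological replicates and corrected by the unselected control. Molecule = full bridge RNA written as DNA, built from the T5 scaffold: LDG = donor specificity nt 1-8, RDG = reverse complement of nt 8-11.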
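Further: IS621 bridge recombinase in Escherichia coli cells against a fixed T5 target plasmid.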

Sequence | recombinant UMI read abundance (log10)
ACGAAGACATGGACCGGTTTTCCCGGTAATCCGTATTTGCA (site AGGAAGACTTG) | 1.81
ACGAAGACATGGACCGGTTTTCCCGGTAATCCGTATTTGCA (site ATGAAGACTTG) | 2.04
ACGAAGACATGGACCGGTTTTCCCGGTAATCCGTATTTGCG (site ACGAAGACTCG) | 2.77
ACGAAGACATGGACCGGTTTTCCCGGTAATCCGTATTTGCG (site AGGAAGACTTG) | 0
ACGAAGTCATGGACCGGTTTTCCCGGTAATCCGTATTTGGG (site ACGAAGTCTCC) | 0.574
ACGAATTCATGGACCGGTTTTCCCGGTAATCCGTATTTGCG (site ACGAATTCTCG) | 2.06
ACGACTTCATGGACCGGTTTTCCCGGTAATCCGTATTTGTT (site ACGACTTCTAA) | 1.23
ACGAGAACATGGACCGGTTTTCCCGGTAATCCGTATTTGTT (site ACGAGAACTAA) | 2.8
ACGCAACCATGGACCGGTTTTCCCGGTAATCCGTATTTGAA (site ACGCAACCTTT) | 0
ACGCGGACATGGACCGGTTTTCCCGGTAATCCGTATTTGTG (site ACGCGGACTCA) | 1.74
ACGCGTCCATGGACCGGTTTTCCCGGTAATCCGTATTTGTG (site ACGCGTCCTCA) | 0.257
ACGCGTGCATGGACCGGTTTTCCCGGTAATCCGTATTTGAC (site ACGCGTGCTGT) | 2.96
ACGCTATCATGGACCGGTTTTCCCGGTAATCCGTATTTGCA (site ACAGTATCTTG) | 1.92
ACGCTATCATGGACCGGTTTTCCCGGTAATCCGTATTTGCA (site ACGCTATCTTG) | 2.75
ACGGACACATGGACCGGTTTTCCCGGTAATCCGTATTTGGT (site ACGGACACTAC) | 1.82
ACGGCCTCATGGACCGGTTTTCCCGGTAATCCGTATTTGGG (site ACGGCCTCTCC) | 0.0343

Sequence | recombinant UMI read abundance (log10)
ACGGGCGCATGGACCGGTTTTCCCGGTAATCCGTATTTGAG (site ACGGGCGCTCT) | 1.15
ACGGTATCATGGACCGGTTTTCCCGGTAATCCGTATTTGCA (site ACAGTATCTTG) | 2.96
ACGGTATCATGGACCGGTTTTCCCGGTAATCCGTATTTGCA (site ACCGTATCTTG) | 1.92
ACGGTATCATGGACCGGTTTTCCCGGTAATCCGTATTTGCA (site ACGGTATCTTG) | 3.16
ACGGTATCATGGACCGGTTTTCCCGGTAATCCGTATTTGCA (site ACTGTATCTTG) | 2.32
ACGGTTTCATGGACCGGTTTTCCCGGTAATCCGTATTTGCA (site ACAGTATCTTG) | 2.71
ACGGTTTCATGGACCGGTTTTCCCGGTAATCCGTATTTGCA (site ACGGTTTCTTG) | 2.34
ACGTCCTCATGGACCGGTTTTCCCGGTAATCCGTATTTGGT (site ACGTCCTCTAC) | 1.51
ACGTGTGCATGGACCGGTTTTCCCGGTAATCCGTATTTGGT (site ACGTGTGCTAC) | 1.99
ACTAGAACATGGACCGGTTTTCCCGGTAATCCGTATTTGAG (site AATAGAACTCT) | 0.839
ACTAGAACATGGACCGGTTTTCCCGGTAATCCGTATTTGAG (site ACAAGAACTCT) | 1.26
ACTAGAACATGGACCGGTTTTCCCGGTAATCCGTATTTGAG (site ACCAGAACTCT) | 1.23
ACTAGAACATGGACCGGTTTTCCCGGTAATCCGTATTTGAG (site ACGAGAACTCT) | 0.424
ACTAGAACATGGACCGGTTTTCCCGGTAATCCGTATTTGAG (site ACTAAAACTCT) | 0.908
ACTAGAACATGGACCGGTTTTCCCGGTAATCCGTATTTGAG (site ACTACAACTCT) | 0.383
ACTAGAACATGGACCGGTTTTCCCGGTAATCCGTATTTGAG (site ACTAGAACTAT) | 0
